Results taken from patent US4102886A, “Process for the preparation of benzo(a)quinolizidine derivatives” (priority 1974, dated 1978).
Read-outs that look alike come from different tables or passages of the source.

What was measured:
[1] = tested on: serotonine-induced oedema; test: Tests performed on serotonine-induced oedema; type: in vivo
Experimental: Tests performed on serotonine-induced oedema
The tests were carried out on groups each consisting of 10 animals. The percentage inhibition of oedema, in relation to the untreated controls, was determined for each of the animals. The data listed in Table 3 are the averages of the inhibition values.

[2] = Inhibition of kaolin-induced oedema; type: in vivo; details: in vivo; LD50/ED50; read-out: Therapeutical index LD50/ED50, kaolin-oedema
Experimental: (§1) Inhibition of Kaolin- and carrageenin-induced oedema
(§2) The tests were carried out on groups each consisting of at least 10 animals. The percentage inhibition of oedema, in relation to the untreated controls, was determined for each of the animals, and the average values were calculated.

kaolin-induced oedema = test: Inhibition of kaolin-induced oedema; type: in vivo; details: 2 hours
Experimental: as §1, §2

[3] = Inhibition of carrageenin-induced oedema; type: in vivo; details: in vivo; LD50/ED50; read-out: Therapeutical index LD50/ED50, carrageenin-oedema
Experimental: as §1, §2

[4] = tested on: carrageenin-induced oedema; test: Inhibition of carrageenin-induced oedema; type: in vivo; details: 1.5 hours
Experimental: as §1, §2

rats = test: Acute toxicity tests; type: in vivo; details: p.o., Litchfield-Wildoxon method
Experimental: (§3) The acute toxicity values of the compounds were determined on rats, after oral administration. The LD50 values were calculated according to the Litchfield-Wildoxon method.

[5] = Determination of ulcer index
[6] = Analgesic effect by the hot-plate test; type: in vivo; details: 50 mg./kg. p.o.
Cotton granuloma = Cotton granuloma test; type: in vivo; details: 50 mg./kg.
Acute toxicity tests = type: in vivo; details: rat, in vivo, po; rats, Litchfield-Wildoxon method
Experimental: as §3

[7] = tested on: experimentally provoked fever; test: Antipyretic activity (experimentally provoked fever); type: in vivo; design: unit not given here
Text: Besides their antiphlogistic activities, some of the benzo(a)quinolizidine derivatives exert antipyretic effects as well. On the basis of the tests performed on experimentally provoked fever, the antipyretic activities of the compounds according to the invention surpass the effect of amidazophenum.

[8] = Analgesic effect by the writhing test; type: in vivo
[9] = in vivo
CFY rats = test: Toxicity tests performed with compound SC-118; type: in vivo
Experimental: (§4) In order to give a more detailed information, in the following there are given the results of the toxicity tests performed with compound SC-118. The tests were carried out on CFY rats, each weighing 150 to 200 g.

[10] = Toxicity tests performed with compound SC-118; type: in vivo; details: rat, in vivo, CFY rats
Experimental: as §4

central nervious system = test: Narcosis potentiating effect; type: in vivo
[11] = 25 mg./kg. p.o., 1 hour after administration
[12] = 25 mg./kg. p.o., 2 hours after administration
[13] = 25 mg./kg. p.o., 3 hours after administration
[14] = 50 mg./kg. p.o., 1 hour after administration
[15] = 50 mg./kg. p.o., 2 hours after administration
[16] = 50 mg./kg. p.o., 3 hours after administration

## COc1ccc2c(c1)c(CC(=O)O)c(C)n2C(=O)c1ccc(Cl)cc1 [Indomethacine, reference compound]
[1]; 25 mg./kg. p.o.
  Percentage inhibition 1 hour after administration (serotonine-induced oedema): 1.4%
[2]
  selectivity ratio: 2.3
kaolin-induced oedema; 10 mg./kg. p.o.
  Inhibition of kaolin-induced oedema 2 hours after administration: 27.2%
[3]
  selectivity ratio: 1.3
[4]; 10 mg./kg. p.o.
  Inhibition of carrageenin-induced oedema 1.5 hours after administration: 26.7%
rats
  LD50: 12 mg/kg
[5]; female
  Erosion: 1/10
  Ulcer: 3/10
[5]; in words
  ulcerogeneous effect: marked ulcerogeneous effect
[5]; male
  Erosion: 1/10
  Ulcer: 3/10
[6]
  Prolongation of the reaction time, % (2 hours after administration): no evaluable effect can be

## CCCCC1C(=O)N(c2ccccc2)N(c2ccccc2)C1=O [Phenylbutazone]
[1]; 100 mg./kg. p.o.
  Percentage inhibition 1 hour after administration (serotonine-induced oedema): 10.2%
Cotton granuloma
  Effect, % (cotton granuloma test): 19.6%
kaolin-induced oedema; 50 mg./kg. p.o.
  Inhibition of kaolin-induced oedema 2 hours after administration: 27.5%
[4]; 50 mg./kg. p.o.
  Inhibition of carrageenin-induced oedema 1.5 hours after administration: 24.3%
Acute toxicity tests
  LD50: 1180 mg/kg
[7]; [11]
  Variation of body temperature: -0.82
[7]; [12]
  Variation of body temperature: -0.84
[7]; [13]
  Variation of body temperature: -0.73
[7]; [14]
  Variation of body temperature: -1.05
[7]; [15]
  Variation of body temperature: -1.07
[7]; [16]
  Variation of body temperature: -0.76
[6]
  Prolongation of the reaction time, % (2 hours after administration): no evaluable effect can be
[8]; 100 mg./kg. p.o.
  Activity, % (reduction of the number of writhings in relation to the controls): 17.6%
[9]
  Erosion: 0/10

## N#CCCC1CN2CCc3cc4c(cc3C2CC1=O)OCO4 (stereo not drawn) [SC-118, 2-Oxo-3-(β-cyano-ethyl)-9,10-methylenedioxy-1,2,3,4,6,7-hexahydro-11bH-benzo(a)quinolisidine]
CFY rats; 750 mg./kg., 24 hours, female
  Dead animals/treated animals: 0/10
CFY rats; 750 mg./kg., 24 hours, male
  Dead animals/treated animals: 0/10
CFY rats; 750 mg./kg., 48 hours, female
  Dead animals/treated animals: 0/10
CFY rats; 750 mg./kg., 48 hours, male
  Dead animals/treated animals: 0/10
CFY rats; 750 mg./kg., 72 hours, female
  Dead animals/treated animals: 0/10
CFY rats; 750 mg./kg., 72 hours, male
  Dead animals/treated animals: 0/10
CFY rats; 1000 mg./kg., 24 hours, female
  Dead animals/treated animals: 2/10
CFY rats; 1000 mg./kg., 24 hours, male
  Dead animals/treated animals: 1/10
CFY rats; 1000 mg./kg., 48 hours, female
  Dead animals/treated animals: 2/10
CFY rats; 1000 mg./kg., 48 hours, male
  Dead animals/treated animals: 2/10
CFY rats; 1000 mg./kg., 72 hours, female
  Dead animals/treated animals: 2/10
CFY rats; 1000 mg./kg., 72 hours, male
  Dead animals/treated animals: 2/10
CFY rats; 1250 mg./kg., 24 hours, female
  Dead animals/treated animals: 3/10
CFY rats; 1250 mg./kg., 24 hours, male
  Dead animals/treated animals: 2/10
CFY rats; 1250 mg./kg., 48 hours, female
  Dead animals/treated animals: 3/10
CFY rats; 1250 mg./kg., 48 hours, male
  Dead animals/treated animals: 3/10
CFY rats; 1250 mg./kg., 72 hours, female
  Dead animals/treated animals: 3/10
CFY rats; 1250 mg./kg., 72 hours, male
  Dead animals/treated animals: 3/10
CFY rats; 1500 mg./kg., 24 hours, female
  Dead animals/treated animals: 6/10
CFY rats; 1500 mg./kg., 24 hours, male
  Dead animals/treated animals: 5/10
CFY rats; 1500 mg./kg., 48 hours, female
  Dead animals/treated animals: 6/10
CFY rats; 1500 mg./kg., 48 hours, male
  Dead animals/treated animals: 5/10
CFY rats; 1500 mg./kg., 72 hours, female
  Dead animals/treated animals: 6/10
CFY rats; 1500 mg./kg., 72 hours, male
  Dead animals/treated animals: 5/10
CFY rats; 1750 mg./kg., 24 hours, female
  Dead animals/treated animals: 6/10
CFY rats; 1750 mg./kg., 24 hours, male
  Dead animals/treated animals: 6/10
CFY rats; 1750 mg./kg., 48 hours, female
  Dead animals/treated animals: 8/10
CFY rats; 1750 mg./kg., 48 hours, male
  Dead animals/treated animals: 8/10
CFY rats; 1750 mg./kg., 72 hours, female
  Dead animals/treated animals: 8/10
CFY rats; 1750 mg./kg., 72 hours, male
  Dead animals/treated animals: 8/10
CFY rats; 2000 mg./kg., 24 hours, female
  Dead animals/treated animals: 10/10
CFY rats; 2000 mg./kg., 24 hours, male
  Dead animals/treated animals: 10/10
CFY rats; 2000 mg./kg., 48 hours, female
  Dead animals/treated animals: 10/10
CFY rats; 2000 mg./kg., 48 hours, male
  Dead animals/treated animals: 10/10
CFY rats; 2000 mg./kg., 72 hours, female
  Dead animals/treated animals: 10/10
CFY rats; 2000 mg./kg., 72 hours, male
  Dead animals/treated animals: 10/10
[10]; female, read-out: LD50, f
  LD50: 1400 mg/kg
[10]; male, read-out: LD50, m
  LD50: 1420 mg/kg
[1]; 25 mg./kg. p.o.
  Percentage inhibition 1 hour after administration (serotonine-induced oedema): 28.5%
[1]; 50 mg./kg. p.o.
  Percentage inhibition 1 hour after administration (serotonine-induced oedema): 42.1%
[1]; 75 mg./kg. p.o.
  Percentage inhibition 1 hour after administration (serotonine-induced oedema): 48.7%
Cotton granuloma
  Effect, % (cotton granuloma test): 26.4%
[2]
  selectivity ratio: 29.2
kaolin-induced oedema; 25 mg./kg. p.o.
  Inhibition of kaolin-induced oedema 2 hours after administration: 18.1%
kaolin-induced oedema; 50 mg./kg. p.o.
  Inhibition of kaolin-induced oedema 2 hours after administration: 27.5%
kaolin-induced oedema; 75 mg./kg. p.o.
  Inhibition of kaolin-induced oedema 2 hours after administration: 43.7%
kaolin-induced oedema; 100 mg./kg. p.o.
  Inhibition of kaolin-induced oedema 2 hours after administration: 53.4%
[3]
  selectivity ratio: 22.6
[4]; 25 mg./kg. p.o.
  Inhibition of carrageenin-induced oedema 1.5 hours after administration: 22.0%
[4]; 50 mg./kg. p.o.
  Inhibition of carrageenin-induced oedema 1.5 hours after administration: 30.6%
[4]; 75 mg./kg. p.o.
  Inhibition of carrageenin-induced oedema 1.5 hours after administration: 47.7%
[4]; 100 mg./kg. p.o.
  Inhibition of carrageenin-induced oedema 1.5 hours after administration: 52.7%
Acute toxicity tests
  LD50: 1410 mg/kg
[7]; [11]
  Variation of body temperature: -1.67
[7]; [12]
  Variation of body temperature: -1.81
[7]; [13]
  Variation of body temperature: -1.60
[7]; [14]
  Variation of body temperature: -2.75
[7]; [15]
  Variation of body temperature: -3.34
[7]; [16]
  Variation of body temperature: -4.03
[5]; female
  Erosion: 0/10
  Ulcer: 0/10
[5]; male
  Erosion: 0/10
  Ulcer: 0/10
[6]
  Prolongation of the reaction time, % (2 hours after administration): 61.2%
Central nervious system; 25 mg./kg. p.o.
  Prolongation of the sleep period in relation to the untreated controls, %: 96.4%
Central nervious system; 50 mg./kg. p.o.
  Prolongation of the sleep period in relation to the untreated controls, %: 253.0%
[8]; 50 mg./kg. p.o.
  Activity, % (reduction of the number of writhings in relation to the controls): 41.8%
